Test results taken from patent publication US12129312B2, “Peptide compound, application thereof and composition containing same” (priority 2017, dated 2024).
Numbered stars: 1 amine (or outer) side, 2 acyl side, 3 side chain; on linkers, the order of the positions; unused ones are H or OH. Square brackets hold non-standard residues; d marks the D form. Peptide text beside a SMILES is read from it. * marks the point of attachment. PEG8 = NCCOCCOCCOCCOCCOCCOCCOCCOCCC(=O)O; Benzoyl(2,3-diOH) = O=C(c1cccc(O)c1O)*; Pro(4,4-F2) = O=C(O)[C@@H]1CC(F)(F)CN1; X5 = O=C([C@H]1c2ccccc2CCN1[*:1])[*:2]; 1Nal = N[C@@H](Cc1cccc2ccccc12)C(=O)O; 2Nal = N[C@@H](Cc1ccc2ccccc2c1)C(=O)O; Tiq1c(1S) = O=C(O)[C@H]1NCCc2ccccc21; dNMeY = CN[C@H](Cc1ccc(O)cc1)C(=O)O; Palmitoyl = CCCCCCCCCCCCCCCC(=O)*; NMeF = CN[C@@H](Cc1ccccc1)C(=O)O; Tic = O=C(O)[C@@H]1Cc2ccccc2CN1; dTic = O=C(O)[C@H]1Cc2ccccc2CN1; NMeL = CN[C@@H](CC(C)C)C(=O)O; NMeS = CN[C@@H](CO)C(=O)O; Thz = O=C(O)[C@@H]1CSCN1; βAla = NCCC(=O)O

Target: T1, human Chemokine like receptor 1 (Homo sapiens, UniProt Q99788)
T1 construct: host or cells: U2OS (Tango CMKLR1-bla U2OS)
T1 sequence (Q99788 1-373): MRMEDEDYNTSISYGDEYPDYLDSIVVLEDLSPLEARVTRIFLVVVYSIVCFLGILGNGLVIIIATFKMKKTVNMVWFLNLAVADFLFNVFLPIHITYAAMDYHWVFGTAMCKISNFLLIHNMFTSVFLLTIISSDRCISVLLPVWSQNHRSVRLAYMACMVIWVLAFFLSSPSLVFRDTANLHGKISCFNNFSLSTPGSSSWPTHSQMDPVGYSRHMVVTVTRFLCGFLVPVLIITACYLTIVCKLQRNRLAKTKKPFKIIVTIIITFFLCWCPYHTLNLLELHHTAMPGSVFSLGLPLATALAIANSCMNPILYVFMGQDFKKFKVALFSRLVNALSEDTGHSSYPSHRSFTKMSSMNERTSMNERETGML
Test: Activation of Tango CMKLR1-bla U2OS cells (beta-lactamase FRET reporter)
Type: cell-based
Details: not given
Method in brief: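 Agonist mode in Tango CMKLR1-bla U2OS cells, 10000 cells/well seeded overnight, then 10-point 3-fold compound dilutions from 10 mM DMSO stock applied for 4 h at 37 °C, 5% CO2. Beta-lactamase reporter read with CCF4-AM FRET substrate; peptide (D-Tyr)-Phe-Leu-Pro-(D-Ser)-Gln-Phe-(D-Ala)-Tic-Ser served as positive control.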

Compound	EC50 [nM]
CC(C)C[C@H](NC(=O)[C@H](Cc1ccccc1)NC(=O)[C@H](N)Cc1ccc(O)cc1)C(=O)N1CCC[C@H]1C(=O)N[C@H](CO)C(=O)N[C@@H](CCC(N)=O)C(=O)N[C@@H](Cc1cccc2ccccc12)C(=O)N[C@H](C)C(=O)N1Cc2ccccc2C[C@H]1C(=O)N[C@@H](CO)C(=O)O [YW-117, (D-Tyr)-Phe-Leu-Pro-(D-Ser)-Gln-1Nal-(D-Ala)-Tic-Ser-OH] (H-[dY]FLP[dS]Q[1Nal][dA][Tic]S-OH)	3.9

Same assay, conditions: determination by the method of Effect Embodiment 1; read-out: EC50

EC50 [nM]	Compound
3	CC(C)C[C@@H](C(=O)N1CCC[C@H]1C(=O)N[C@H](CO)C(=O)N[C@@H](CCC(N)=O)C(=O)N[C@@H](Cc1ccccc1)C(=O)N[C@H](C)C(=O)N1Cc2ccccc2C[C@H]1C(=O)N[C@@H](CO)C(=O)O)N(C)C(=O)[C@H](Cc1ccccc1)NC(=O)[C@H](N)Cc1ccc(O)cc1 [YW-98, (D-Tyr)-Phe-(NMe-Leu)-Pro-(D-Ser)-Gln-Phe-(D-Ala)-Tic-Ser-OH] (H-[dY]F[NMeL]P[dS]QF[dA][Tic]S-OH)
0.5	CN[C@H](Cc1ccc(O)cc1)C(=O)N[C@@H](Cc1ccccc1)C(=O)N(C)[C@@H](CC(C)C)C(=O)N1CSC[C@H]1C(=O)N[C@H](CO)C(=O)N[C@@H](CCC(N)=O)C(=O)N[C@@H](Cc1ccc2ccccc2c1)C(=O)N[C@H](C)C(=O)N1Cc2ccccc2C[C@H]1C(=O)N[C@@H](CO)C(=O)O [YW-148, (D-NMe-Tyr)-Phe-(NMe-Leu)-Thz-(D-Ser)-Gln-2Nal-(D-Ala)-Tic-Ser-OH] (H-[dNMeY]F[NMeL][Thz][dS]Q[2Nal][dA][Tic]S-OH)
0.7	CC(C)C[C@@H](C(=O)N1CSC[C@H]1C(=O)N[C@H](CO)C(=O)N[C@@H](CCC(N)=O)C(=O)N[C@@H](Cc1ccccc1)C(=O)N[C@H](C)C(=O)N1Cc2ccccc2C[C@H]1C(=O)N[C@@H](CO)C(=O)O)N(C)C(=O)[C@H](Cc1ccccc1)NC(=O)[C@H](N)Cc1ccc(O)cc1 [YW-121, (D-Tyr)-Phe-(NMe-Leu)-Thz-(D-Ser)-Gln-Phe-(D-Ala)-Tic-Ser-OH] (H-[dY]F[NMeL][Thz][dS]QF[dA][Tic]S-OH)
1.2	CC(C)C[C@@H](C(=O)N1CC(F)(F)C[C@H]1C(=O)N[C@H](CO)C(=O)N[C@@H](CCC(N)=O)C(=O)N[C@@H](Cc1ccccc1)C(=O)N[C@H](C)C(=O)N1Cc2ccccc2C[C@H]1C(=O)N[C@@H](CO)C(=O)O)N(C)C(=O)[C@H](Cc1ccccc1)NC(=O)[C@H](N)Cc1ccc(O)cc1 [YW-174, (D-Tyr)-Phe-(NMe-Leu)-Pro(diF)-(D-Ser)-Gln-Phe-(D-Ala)-Tic-Ser-OH] (H-[dY]F[NMeL][Pro(4,4-F2)][dS]QF[dA][Tic]S-OH)
10.6	CC(C)C[C@@H](C(=O)N1CCC[C@H]1C(=O)N[C@H](CO)C(=O)N[C@@H](CCC(N)=O)C(=O)N[C@@H](Cc1ccccc1)C(=O)N[C@H](C)C(=O)N1Cc2ccccc2C[C@H]1C(=O)N[C@@H](CO)C(=O)O)N(C)C(=O)[C@H](Cc1ccccc1)N(C)C(=O)[C@H](N)Cc1ccc(O)cc1 [YW-105, (D-Tyr)-(NMe-Phe)-(NMe-Leu)-Pro-(D-Ser)-Gln-Phe-(D-Ala)-Tic-Ser-OH] (H-[dY][NMeF][NMeL]P[dS]QF[dA][Tic]S-OH; N-terminus assumed)
62	CC(C)C[C@H](NC(=O)[C@H](Cc1ccccc1)NC(=O)[C@H](N)Cc1ccc(O)cc1)C(=O)N1CCC[C@H]1C(=O)N[C@H](CO)C(=O)N[C@@H](CCC(N)=O)C(=O)N[C@@H](Cc1ccccc1)C(=O)N[C@H](C)C(=O)N1CCc2ccccc2[C@H]1C(=O)N[C@@H](CO)C(=O)O [YW-150, (D-Tyr)-Phe-Leu-Pro-(D-Ser)-Gln-Phe-(D-Ala)-Ti1c-Ser-OH] (H-[dY]FLP[dS]QF[dA][Tiq1c(1S)]S-OH)
27	CC(C)C[C@H](NC(=O)[C@H](Cc1ccccc1)NC(=O)[C@H](N)Cc1ccc(O)cc1)C(=O)N1CCC[C@H]1C(=O)N[C@H](CO)C(=O)N[C@@H](CCC(N)=O)C(=O)N[C@@H](Cc1ccccc1)C(=O)N[C@H](C)C(=O)N1CCc2ccccc2[C@@H]1C(=O)N[C@@H](CO)C(=O)O [YW-151, (D-Tyr)-Phe-Leu-Pro-(D-Ser)-Gln-Phe-(D-Ala)-D-Ti1c-Ser-OH] (H-[dY]FLP[dS]QF[dA][X5]S-OH)
2.1	CCCCCCCCCCCCCCCC(=O)NCCOCCOCCOCCOCCOCCOCCOCCOCCC(=O)NCCC(=O)NCCC(=O)N(C)[C@H](Cc1ccc(O)cc1)C(=O)N[C@@H](Cc1ccccc1)C(=O)N(C)[C@@H](CC(C)C)C(=O)N1CCC[C@H]1C(=O)N[C@H](CO)C(=O)N[C@@H](CCC(N)=O)C(=O)N[C@@H](Cc1ccc2ccccc2c1)C(=O)N[C@H](C)C(=O)N1Cc2ccccc2C[C@H]1C(=O)N(C)[C@@H](CO)C(=O)O [YW-179, Palm-PEG8-(beta-Ala)-(beta-Ala)-(D-NMeTyr)-Phe-(NMe-Leu)-Pro-(D-Ser)-Gln-2Nal-(D-Ala)-Tic-(NMe-Ser)] ({Palmitoyl-PEG8-βAla-βAla}-[dNMeY]F[NMeL]P[dS]Q[2Nal][dA][Tic][NMeS]-OH)
21	CC(C)C[C@H](NC(=O)[C@H](Cc1ccccc1)NC(=O)[C@H](N)Cc1ccc(O)cc1)C(=O)N1CCC[C@H]1C(=O)N[C@H](CO)C(=O)N[C@@H](CCC(N)=O)C(=O)N[C@@H](Cc1ccccc1)C(=O)N[C@H](C)C(=O)N1Cc2ccccc2C[C@@H]1C(=O)N[C@@H](CO)C(=O)O [YW-149, (D-Tyr)-Phe-Leu-Pro-(D-Ser)-Gln-Phe-(D-Ala)-D-Tic-Ser-OH] (H-[dY]FLP[dS]QF[dA][dTic]S-OH)
10	CC(C)C[C@H](NC(=O)[C@H](Cc1ccccc1)NC(=O)[C@@H](Cc1ccc(O)cc1)NC(=O)c1cccc(O)c1O)C(=O)N1CCC[C@H]1C(=O)N[C@H](CO)C(=O)N[C@@H](CCC(N)=O)C(=O)N[C@@H](Cc1ccccc1)C(=O)N[C@H](C)C(=O)N1Cc2ccccc2C[C@H]1C(=O)N[C@@H](CO)C(=O)O [YW-127, 2,3-dihydroxybenzoyl-(D-Tyr)-Phe-Leu-Pro-(D-Ser)-Gln-Phe-(D-Ala)-Tic-Ser-OH] ({Benzoyl(2,3-diOH)}-[dY]FLP[dS]QF[dA][Tic]S-OH)
2.2	CN[C@H](Cc1ccc(O)cc1)C(=O)N[C@@H](Cc1ccccc1)C(=O)N(C)[C@@H](CC(C)C)C(=O)N1CCC[C@H]1C(=O)N[C@H](CO)C(=O)N[C@@H](CCC(N)=O)C(=O)N[C@@H](Cc1ccccc1)C(=O)N[C@H](C)C(=O)N1Cc2ccccc2C[C@H]1C(=O)N[C@@H](CO)C(=O)O [YW-163, (D-NMe-Tyr)-Phe-(NMe-Leu)-Pro-(D-Ser)-Gln-Phe-(D-Ala)-Tic-Ser-OH] (H-[dNMeY]F[NMeL]P[dS]QF[dA][Tic]S-OH)
1.3	CN[C@H](Cc1ccc(O)cc1)C(=O)N[C@@H](Cc1ccccc1)C(=O)N(C)[C@@H](CC(C)C)C(=O)N1CSC[C@H]1C(=O)N[C@H](CO)C(=O)N[C@@H](CCC(N)=O)C(=O)N[C@@H](Cc1ccccc1)C(=O)N[C@H](C)C(=O)N1Cc2ccccc2C[C@H]1C(=O)N(C)[C@@H](CO)C(=O)O [YW-124, (NMe-D-Tyr)-Phe-(NMe-Leu)-Thz-(D-Ser)-Gln-Phe-(D-Ala)-Tic-(NMe-Ser)-OH] (H-[dNMeY]F[NMeL][Thz][dS]QF[dA][Tic][NMeS]-OH)
6.8	CC(C)C[C@H](NC(=O)[C@H](Cc1ccccc1)NC(=O)[C@H](N)Cc1ccc(O)cc1)C(=O)N1CCC[C@H]1C(=O)N[C@H](CO)C(=O)N[C@@H](CCC(N)=O)C(=O)N[C@@H](Cc1ccccc1)C(=O)N[C@H](C)C(=O)N1Cc2ccccc2C[C@H]1C(=O)N[C@@H](CO)C(N)=O [YW-189, (D-Tyr)-Phe-Leu-Pro-(D-Ser)-Gln-Phe-(D-Ala)-Tic-Ser-NH2] (H-[dY]FLP[dS]QF[dA][Tic]S-NH2; N-terminus assumed)
